Patent US9315503B2, “Kinase inhibitors” (CHIESI FARMACEUTICI S.p.A., priority 2011, dated 2016)

Assays:
[1] = tested on: BAL cell influx induced by TS; assay: Pre-clinical mouse model of COPD: tobacco smoke induced pulmonary inflammation; format: in vivo; conditions: mice, 3, 30 or 100 μg/kg, intranasal route, 4 daily TS exposures, BAL 24 h after final exposure (FIG. 1)
Description: Pre-Clinical Mouse Model of COPD Tobacco Smoke Induced Pulmonary Inflammation.
This timepoint was used in the studies reported here.
Protocols for the exposure of mice to TS, obtaining bronchoalveolar lavage fluid (BALF) and preparation of cytospin slides for differential cell counts are as outlined below.
Daily Exposure of Mice to TS for 4 Consecutive Days.
In this exposure protocol, mice were exposed in groups of 5 in individual clear polycarbonate chambers (27 cm×16 cm×12 cm). The TS from the cigarettes was allowed to enter the exposure chambers at a flow rate of 100 ml/min. In order to minimise any potential problems caused by repeated exposure to a high level of TS, the exposure of the mice to TS was increased gradually over the exposure period to a maximum of 6 cigarettes. […]
Lavage fluid was separated from cells by centrifugation and the supernatant decanted and frozen for subsequent analyses. The cell pellet was re-suspended in a known volume of PBS and total cell numbers calculated by counting a stained (Turks stain) aliquot under a microscope using a haemocytometer. […]
The residual cell pellet was diluted to approximately 10^5 cells per ml. […] Approximately four hundred cells were counted by an unbiased operator using light microscopy. […]
All results are presented as individual data points for each animal and the mean value was calculated for each group. […]

p38alpha = target: T1, p38alpha (Homo sapiens, UniProt Q16539); assay: P38Alpha enzyme inhibition assay (Alphascreen kinase activity assay); format: biochemical; conditions: 100 pM p38alpha, 250 μM ATP, 2 hours pre-incubation at 25° C., read-out: p38α inhibition (IC50 values)
T1 construct: purchased Invitrogen PV3304
T1 sequence (Q16539 whole entry): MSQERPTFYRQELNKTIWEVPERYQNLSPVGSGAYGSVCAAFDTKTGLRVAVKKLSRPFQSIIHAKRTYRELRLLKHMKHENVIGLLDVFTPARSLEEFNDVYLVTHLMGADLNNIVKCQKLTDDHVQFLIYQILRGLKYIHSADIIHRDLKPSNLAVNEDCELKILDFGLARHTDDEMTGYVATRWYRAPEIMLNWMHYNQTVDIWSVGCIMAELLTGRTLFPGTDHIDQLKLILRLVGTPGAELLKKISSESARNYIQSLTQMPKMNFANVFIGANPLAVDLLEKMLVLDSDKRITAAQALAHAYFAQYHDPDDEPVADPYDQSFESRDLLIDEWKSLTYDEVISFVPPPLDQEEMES
Outline: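 p38α (100 pM) with ATF-2 fusion protein substrate (0.3 µg/ml) in pH 7.5 HEPES/MgCl2 buffer, 1% DMSO, preincubated 2 h at 25°C with compound. Reaction started with 250 µM ATP, ran 1 h at 25°C, then stopped with EDTA. Phospho-ATF2 antibody detected by AlphaScreen luminescence; IC50 from concentration-response curves.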

[2] = tested on: LPS-stimulated TNFα release from PBMCs; assay: LPS-stimulated PBMC TNFα release assay; format: cell-based; conditions: inhibition of TNFα release, human PBMCs, LPS 10 ng/ml, 18 h, ELISA, read-out: p38α inhibition (IC50 values)
Outline: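 Healthy-donor human PBMCs, density-gradient isolated, preincubated 1 h at 37 °C with compound in 1% FBS RPMI 1640, then stimulated with LPS (10 ng/ml) for 18 h. Supernatant TNFα by ELISA; IC50 from dose-response of % inhibition of control release, n≥3 experiments.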

| SMILES | IC50 (p38alpha) [nM] | BAL cell influx induced by TS [1] | IC50 [2] [nM] |
| --- | --- | --- | --- |
| CN1CCC[C@H]1c1nnc2ccc(O[C@H]3C[C@H](NC(=O)Nc4cc(C(C)(C)C)nn4-c4ccc(CO)cc4)c4ccccc43)cn12 [Example 37, 1-[5-tert-Butyl-2-(4-hydroxymethyl-phenyl)-2H-pyrazol-3-yl]-3-{(1S,3S)-3-[3-((S)-1-methyl-pyrrolidin-2-yl)-[1,2,4]triazolo[4,3-a]pyridin-6-yloxy]-indan-1-yl}-urea] | < 10 |  | < 10 |
| Cc1ccc(-n2nc(C(C)(C)C)cc2NC(=O)N[C@H]2CC[C@@H](Oc3ccc4nnc(N(C)CCN(C)C)n4c3)c3ccccc32)cc1 [Example 43, 1-(5-tert-Butyl-2-p-tolyl-2H-pyrazol-3-yl)-3-((1S,4R)-4-{3-[(2-dimethylamino-ethyl)-methyl-amino]-[1,2,4]triazolo[4,3-a]pyridin-6-yloxy}-1,2,3,4-tetrahydro-naphthalen-1-yl)-urea] | < 10 |  | < 10 |
| C[C@H]1CCCCN1c1nnc2ccc(O[C@@H]3CC[C@H](NC(=O)Nc4cc(C(C)(C)C)nn4CCN4CCOCC4)c4ccccc43)cn12 [Example 116, 1-[5-tert-Butyl-2-(2-morpholin-4-yl-ethyl)-2H-pyrazol-3-yl]-3-{(1S,4R)-4-[3-((S)-2-methyl-piperidin-1-yl)-[1,2,4]triazolo[4,3-a]pyridin-6-yloxy]-1,2,3,4-tetrahydro-naphthalen-1-yl}-urea] | < 10 |  | < 10 |
| CN1CCC[C@H]1c1nnc2ccc(O[C@@H]3CC[C@H](NC(=O)Nc4cc(C(C)(C)C)nn4-c4ccc(CO)cc4)c4ccccc43)cn12 [Example 33, 1-[5-tert-Butyl-2-(4-hydroxymethyl-phenyl)-2H-pyrazol-3-yl]-3-{(1S,4R)-4-[3-((S)-1-methyl-pyrrolidin-2-yl)-[1,2,4]triazolo[4,3-a]pyridin-6-yloxy]-1,2,3,4-tetrahydro-naphthalen-1-yl}urea] | < 10 |  | < 10 |

More lines, main results first:

| IC50 (p38alpha) [nM] | SMILES | BAL cell influx induced by TS [1] | IC50 [2] [nM] |
| --- | --- | --- | --- |
| < 10 | Cc1ccc(-n2nc(C(C)(C)C)cc2NC(=O)N[C@H]2CC[C@@H](Oc3ccc4nnc([C@@H]5CCCN5C)n4c3)c3ccccc32)cc1 [Example 5, 1-(5-tert-Butyl-2-p-tolyl-2H-pyrazol-3-yl)-3-[(1S,4R)-4-[3-((S)-1-methyl-pyrrolidin-2-yl)-[1,2,4]triazolo[4,3-a]pyridin-6-yloxy)-1,2,3,4-tetrahydro-naphthalen-1-yl]-urea] | significantly inhibited | < 10 |
| < 10 | Cc1ccc(-n2nc(C(C)(C)C)cc2NC(=O)N[C@H]2CC[C@@H](Oc3ccc4nnc(-c5ccc(CN6CCOCC6)cc5)n4c3)c3ccccc32)cc1 [Example 18, 1-(5-tert-Butyl-2-p-tolyl-2H-pyrazol-3-yl)-3-{(1S,4R)-4-[3-(4-morpholin-4-ylmethyl-phenyl)-[1,2,4]triazolo[4,3-a]pyridin-6-yloxy]-1,2,3,4-tetrahydro-naphthalen-1-yl]-urea] |  | < 10 |
| < 10 | Cc1ccc(-n2nc(C(C)(C)C)cc2NC(=O)N[C@H]2CC[C@@H](Oc3ccc4nnc(N5CCCCC5)n4c3)c3ccccc32)cc1 [Example 3] |  | < 10 |
| < 10 | Cc1ccc(-n2nc(C(C)(C)C)cc2NC(=O)N[C@H]2CC[C@@H](Oc3ccc4nnc(N5CC[C@@H](CO)C5)n4c3)c3ccccc32)cc1 [Example 93, 1-(5-tert-Butyl-2-p-tolyl-2H-pyrazol-3-yl)-3-{(1S,4R)-4-[3-((R)-3-hydroxymethyl-pyrrolidin-1-yl)-[1,2,4]triazolo[4,3-a]pyridin-6-yloxy]-1,2,3,4-tetrahydro-naphthalen-1-yl}-urea] |  | < 10 |
